Measured values reported in patent US9403847B2, “Substituted heteroaryl fused derivatives as P13K inhibitors” (Incyte Corporation, priority 2009, dated 2016).
Where a name gives a salt, the structure may show the parent alone.

Legend:
[1] = target: T1, PI3Kδ (p110δ/p85α) (Homo sapiens, UniProt O00329); assay: PI3Kδ scintillation proximity assay (enzyme assay A); type: biochemical; conditions: 20 μM PIP2, 20 μM ATP, 4 nM PI3Kδ, 210 minutes, room temperature; read-out: IC50 data for PI3Kδ enzyme assay A (PI3Kd Enzyme Assay A)
T1 construct: purchased Millipore (Bedford, Mass.)
T1 sequence (O00329 whole entry): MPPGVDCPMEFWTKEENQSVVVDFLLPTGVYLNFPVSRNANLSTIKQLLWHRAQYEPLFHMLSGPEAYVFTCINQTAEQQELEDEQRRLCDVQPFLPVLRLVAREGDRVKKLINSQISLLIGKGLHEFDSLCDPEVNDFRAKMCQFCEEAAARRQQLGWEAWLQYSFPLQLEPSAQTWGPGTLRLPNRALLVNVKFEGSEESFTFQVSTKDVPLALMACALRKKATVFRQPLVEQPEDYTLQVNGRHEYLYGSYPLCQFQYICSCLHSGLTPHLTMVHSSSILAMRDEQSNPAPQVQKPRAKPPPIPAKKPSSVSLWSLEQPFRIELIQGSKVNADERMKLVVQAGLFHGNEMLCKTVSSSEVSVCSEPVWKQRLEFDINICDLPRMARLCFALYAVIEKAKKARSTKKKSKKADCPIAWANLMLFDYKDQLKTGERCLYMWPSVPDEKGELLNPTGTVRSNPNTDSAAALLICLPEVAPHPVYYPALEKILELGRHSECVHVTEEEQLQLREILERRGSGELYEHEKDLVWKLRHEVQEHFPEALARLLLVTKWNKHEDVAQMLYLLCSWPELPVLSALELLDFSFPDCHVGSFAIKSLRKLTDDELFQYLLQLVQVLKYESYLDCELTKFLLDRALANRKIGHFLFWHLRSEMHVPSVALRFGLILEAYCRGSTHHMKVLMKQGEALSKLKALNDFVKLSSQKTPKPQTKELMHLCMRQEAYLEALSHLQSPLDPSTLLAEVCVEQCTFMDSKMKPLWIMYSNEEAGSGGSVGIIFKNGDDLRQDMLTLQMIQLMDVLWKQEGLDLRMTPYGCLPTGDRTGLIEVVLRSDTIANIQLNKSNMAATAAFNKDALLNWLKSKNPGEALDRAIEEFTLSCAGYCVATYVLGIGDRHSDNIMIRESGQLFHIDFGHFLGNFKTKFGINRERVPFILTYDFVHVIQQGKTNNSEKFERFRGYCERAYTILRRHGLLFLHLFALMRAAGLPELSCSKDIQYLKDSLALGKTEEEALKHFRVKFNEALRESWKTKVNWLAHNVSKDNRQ
T1 sequence (P27986 whole entry partner): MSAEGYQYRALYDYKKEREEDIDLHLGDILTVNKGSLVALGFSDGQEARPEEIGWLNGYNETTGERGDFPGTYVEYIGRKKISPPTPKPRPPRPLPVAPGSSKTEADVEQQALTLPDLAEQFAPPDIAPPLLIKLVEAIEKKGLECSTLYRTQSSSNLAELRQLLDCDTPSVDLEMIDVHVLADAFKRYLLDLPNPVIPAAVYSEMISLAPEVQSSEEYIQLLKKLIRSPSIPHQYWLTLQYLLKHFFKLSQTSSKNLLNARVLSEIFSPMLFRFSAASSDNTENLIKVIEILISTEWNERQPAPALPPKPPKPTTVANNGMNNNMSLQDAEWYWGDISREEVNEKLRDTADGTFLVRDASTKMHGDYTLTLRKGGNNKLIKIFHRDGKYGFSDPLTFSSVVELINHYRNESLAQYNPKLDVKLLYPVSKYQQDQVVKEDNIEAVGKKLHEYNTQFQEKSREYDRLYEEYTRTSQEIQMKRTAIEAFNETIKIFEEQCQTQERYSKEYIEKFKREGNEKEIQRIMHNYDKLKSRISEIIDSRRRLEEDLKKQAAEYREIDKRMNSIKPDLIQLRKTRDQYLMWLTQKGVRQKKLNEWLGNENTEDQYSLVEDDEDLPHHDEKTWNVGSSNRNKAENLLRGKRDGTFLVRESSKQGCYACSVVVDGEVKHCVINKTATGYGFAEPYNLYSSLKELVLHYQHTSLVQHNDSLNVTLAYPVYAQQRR
From the text: Materials: [γ-^33P]ATP (10 mCi/mL) was purchased from PerkinElmer (Waltham, Mass.). Lipid kinase substrate, D-myo-Phosphatidylinositol 4,5-bisphosphate (PtdIns(4,5)P2)D (+)-sn-1,2-di-O-octanoylglyceryl, 3-O-phospho linked (PIP2), CAS 204858-53-7, was purchased from Echelon Biosciences (Salt Lake City, Utah). PI3Kδ (p110δ/p85α) was purchased from Millipore (Bedford, Mass.). ATP, MgCl2, DTT, EDTA, MOPS and CHAPS were purchased from Sigma-Aldrich (St. Louis, Mo.). Wheat Germ Agglutinin (WGA) YSi SPA Scintillation Beads was purchased from GE healthcare life sciences (Piscataway, N.J.).
Assay: The kinase reaction was conducted in polystyrene 384-well matrix white plate from Thermo Fisher Scientific in a final volume of 25 μL. Inhibitors were first diluted serially in DMSO and added to the plate wells before the addition of other reaction components. The final concentration of DMSO in the assay was 0.5%. The PI3K assays were carried out at room temperature in 20 mM MOPS, pH 6.7, 10 mM MgCl2, 5 mM DTT and CHAPS 0.03%. Reactions were initiated by the addition of ATP, the final reaction mixture consisted of 20 μM PIP2, 20 μM ATP, 0.2 μCi [γ-^33P] ATP, 4 nM PI3Kδ. Reactions were incubated for 210 minutes and terminated by the addition of 40 μL SPA beads suspended in quench buffer: 150 mM potassium phosphate pH 8.0, 20% glycerol. 25 mM EDTA, 400 μM ATP. The final concentration of SPA beads is 1.0 mg/mL. After the plate sealing, plates were shaken overnight at room temperature and centrifuged at 1800 rpm for 10 minutes, the radioactivity of the product was determined by scintillation counting on Topcount (PerkinElmer). IC50 determination was performed by fitting the curve of percent control activity versus the log of the inhibitor concentration using the GraphPad Prism 3.0 software.

[2] = system: B cells; assay: B cell proliferation assay ([3H]-thymidine incorporation, anti-human IgM stimulation); type: cell-based; conditions: 72 h, purified human B cells, goat F(ab')2 anti-human IgM 10 μg/ml, three days plus 12 hrs [3H]-thymidine
Experimental: To acquire B cells, human PBMC were isolated from the peripheral blood of normal, drug free donors by standard density gradient centrifugation on Ficoll-Hypague (GE Healthcare, Piscataway, N.J.) and incubated with anti-CD19 microbeads (Miltenyi Biotech, Auburn, Calif.). The B cells were then purified by positive immunosorting using an autoMacs (Miltenyi Biotech) according to the manufacture's instruction.
The purified B cells (2×10^5/well/200 μL) were cultured in 96-well ultra-low binding plates (Corning, Corning, N.Y.) in RPMI1640, 10% FBS and goat F(ab′)2 anti-human IgM (10 μg/ml) (Invitrogen, Carlsbad, Calif.), in the presence of different amount of test compounds, for three days. [^3H]-thymidine (1 μCi/well) (PerkinElmer, Boston, Mass.) in PBS was then added to the B cell cultures for an additional 12 hrs before the incorporated radioactivity was separated by filtration with water through GF/B filters (Packard Bioscience, Meriden, Conn.) and measured by liquid scintillation counting with a TopCount (Packard Bioscience). […] See Table 2 for data related to compounds of the invention.

IC50 [1] [nM] | Compound | IC50 [2] [nM]
< 200 | CC(Nc1ncnc2[nH]cnc12)c1nc2ccccn2c1-c1cccc(F)c1 (stereo not shown) [Example 2, N-{1-[3-(3-Fluorophenyl)imidazo[1,2-a]pyridin-2-yl]ethyl}-9H-purin-6-amine] | < 500
> 2000 | Cc1cn2c(-c3cccc(F)c3)c(C(C)Nc3ncnc4[nH]cnc34)nc2s1 (stereo not shown) [Example 5, N-{1-[5-(3-Fluorophenyl)-2-methylimidazo[2,1-b][1,3]thiazol-6-yl]ethyl}-9H-purin-6-amine] | 2500 to 5000
> 2000 | Cc1ccn2c(-c3cccc(F)c3)c(C(C)Nc3ncnc4[nH]cnc34)nc2c1 (stereo not shown) [Example 9, N-{1-[3-(3-Fluorophenyl)-7-methylimidazo[1,2-a]pyridin-2-yl]ethyl}-9H-purin-6-amine bis(trifluoroacetate)] | > 5000
< 200 | CC(Nc1ncnc2[nH]cnc12)c1nc2cc(Cl)ccn2c1-c1cccc(F)c1 (stereo not shown) [Example 13, N-{1-[7-Chloro-3-(3-fluorophenyl)imidazo[1,2-a]pyridin-2-yl]ethyl}-9H-purin-6-amine] | 
< 200 | CC(Nc1ncnc2[nH]cnc12)c1nc2c(F)cccn2c1-c1cccc(F)c1 (stereo not shown) [Example 14, N-{1-[8-Fluoro-3-(3-fluorophenyl)imidazo[1,2-a]pyridin-2-yl]ethyl}-9H-purin-6-amine] | 500 to 1000
990 to 2000 | CC(Nc1ncnc2[nH]cnc12)c1nc2c(C(F)(F)F)cccn2c1-c1cccc(F)c1 (stereo not shown) [Example 15, N-{1-[3-(3-Fluorophenyl)-8-(trifluoromethyl)imidazo[1,2-a]pyridin-2-yl]ethyl}-9H-purin-6-amine bis(trifluoroacetate)] | 
990 to 2000 | CC(Nc1ncnc2[nH]cnc12)c1nc2c(C#N)cccn2c1-c1cccc(F)c1 (stereo not shown) [Example 16, 3-(3-Fluorophenyl)-2-[1-(9H-purin-6-ylamino)ethyl]imidazo[1,2-a]pyridine-8-carbonitrile bis(trifluoroacetate)] | 
< 200 | CC(Nc1ncnc2[nH]cnc12)c1nc2ccccn2c1-c1cc(F)ccc1F (stereo not shown) [Example 21, N-{1-[3-(2,5-Difluorophenyl)imidazo[1,2-a]pyridin-2-yl]ethyl}-9H-purin-6-amine] | 2500 to 5000
500 to 990 | Cc1cccc(-c2c(C(C)Nc3ncnc4[nH]cnc34)nc3ccccn23)c1 (stereo not shown) [Example 22, N-{1-[3-(3-Methylphenyl)imidazo[1,2-a]pyridin-2-yl]ethyl}-9H-purin-6-amine] | 
200 to 500 | CC(Nc1ncnc2[nH]cnc12)c1nc2ccccn2c1-c1cc(F)cc(F)c1 (stereo not shown) [Example 23, N-{1-[3-(3,5-Difluorophenyl)imidazo[1,2-a]pyridin-2-yl]ethyl}-9H-purin-6-amine] | 1000 to 2500

The remaining lines, values behind:

Compound | IC50 [1] [nM] | IC50 [2] [nM]
Cc1cccc2nc(C(C)Nc3ncnc4[nH]cnc34)c(-c3cc(F)cc(F)c3)n12 (stereo not shown) [Example 1, N-{1-[3-(3,5-Difluorophenyl)-5-methylimidazo[1,2-a]pyridin-2-yl]ethyl}-9H-purin-6-amine] | < 200 | < 500
CC(Nc1ncnc2[nH]cnc12)c1nc2sccn2c1-c1cc(F)cc(F)c1 (stereo not shown) [Example 3, N-{1-[5-(3,5-Difluorophenyl)imidazo[2,1-b][1,3]thiazol-6-yl]ethyl}-9H-purin-6-amine bis(trifluoroacetate)] | > 2000 | 
Cc1csc2nc(C(C)Nc3ncnc4[nH]cnc34)c(-c3cccc(F)c3)n12 (stereo not shown) [Example 4, N-{1-[5-(3-Fluorophenyl)-3-methylimidazo[2,1-b][1,3]thiazol-6-yl]ethyl}-9H-purin-6-amine bis(trifluoroacetate)] | 500 to 990 | 1000 to 2500
CC(Nc1ncnc2[nH]cnc12)c1nc2ccc(Cl)cn2c1-c1cccc(F)c1 (stereo not shown) [Example 6, N-{1-[6-Chloro-3-(3-fluorophenyl)imidazo[1,2-a]pyridin-2-yl]ethyl}-9H-purin-6-amine bis(trifluoroacetate)] | < 200 | < 500
CC(Nc1ncnc2[nH]cnc12)c1nc2cccc(Cl)n2c1-c1cccc(F)c1 (stereo not shown) [Example 7, N-{1-[5-Chloro-3-(3-fluorophenyl)imidazo[1,2-a]pyridin-2-yl]ethyl}-9H-purin-6-amine tris(trifluoroacetate)] | < 200 | < 500
Cc1ccc2nc(C(C)Nc3ncnc4[nH]cnc34)c(-c3cccc(F)c3)n2c1 (stereo not shown) [Example 8, N-{1-[3-(3-Fluorophenyl)-6-methylimidazo[1,2-a]pyridin-2-yl]ethyl}-9H-purin-6-amine bis(trifluoroacetate)] | 500 to 990 | 1000 to 2500
Cc1cccn2c(-c3cccc(F)c3)c(C(C)Nc3ncnc4[nH]cnc34)nc12 (stereo not shown) [Example 10, N-{1-[3-(3-Fluorophenyl)-8-methylimidazo[1,2-a]pyridin-2-yl]ethyl}-9H-purin-6-amine bis(trifluoroacetate)] | < 200 | < 500
CC(Nc1ncnc2[nH]cnc12)c1nc2c(Cl)cccn2c1-c1cccc(F)c1 (stereo not shown) [Example 11, N-{1-[8-Chloro-3-(3-fluorophenyl)imidazo[1,2-a]pyridin-2-yl]ethyl}-9H-purin-6-amine bis(trifluoroacetate)] | < 200 | 500 to 1000
Cc1ccc(-c2c(C(C)Nc3ncnc4[nH]cnc34)nc3ccccn23)cc1 (stereo not shown) [Example 17, N-{1-[3-(4-Methylphenyl)imidazo[1,2-a]pyridin-2-yl]ethyl}-9H-purin-6-amine] | 500 to 990 | 
CC(Nc1ncnc2[nH]cnc12)c1nc2ccccn2c1-c1cccc(F)c1F (stereo not shown) [Example 18, N-{1-[3-(2,3-Difluorophenyl)imidazo[1,2-a]pyridin-2-yl]ethyl}-9H-purin-6-amine] | 200 to 500 | 1000 to 2500
CC(Nc1ncnc2[nH]cnc12)c1nc2ccccn2c1-c1ccccc1F (stereo not shown) [Example 19, N-{1-[3-(2-Fluorophenyl)imidazo[1,2-a]pyridin-2-yl]ethyl}-9H-purin-6-amine] | 200 to 500 | < 500
Cc1ccccc1-c1c(C(C)Nc2ncnc3[nH]cnc23)nc2ccccn12 (stereo not shown) [Example 20, N-{1-[3-(2-Methylphenyl)imidazo[1,2-a]pyridin-2-yl]ethyl}-9H-purin-6-amine] | 990 to 2000 | 
CC(Nc1ncnc2[nH]cnc12)c1nc2ccccn2c1-c1ccc(F)cc1 (stereo not shown) [Example 24, N-{1-[3-(4-Fluorophenyl)imidazo[1,2-a]pyridin-2-yl]ethyl}-9H-purin-6-amine] | 990 to 2000 | 
CC(Nc1ncnc2[nH]cnc12)c1nn2ccccc2c1-c1cc(F)cc(F)c1 (stereo not shown) [Example 25, N-{1-[3-(3,5-Difluorophenyl)pyrazolo[1,5-a]pyridin-2-yl]ethyl}-9H-purin-6-amine trifluoroacetate] | < 200 | 500 to 1000
